The values that follow come from patent US20230414771A1, “PREPARATION AND USE OF IMMUNOSTIMULATORY CONJUGATED COMPLEXES FOR TARGETED DELIVERY AND ACTIVATION” (YAFEI SHANGHAI BIOLOGY MEDICINE SCIENCE & TECHNOLOGY CO., …, priority 2020, published 2023).

One data set concerns CD8+ T cells. The data set can be described thus: MTT cytotoxicity on CD8+ T cells. Conditions: 48 hours, relative to C3. In kind it is cell-based, C57BL/6 mouse. How it is done: • 1) Take the spleen of C57BL/6 mouse, place it on the culture dish with 40 uM screen (ice bath), add about 10 mL of normal saline, and gently grind with sterile syringe core. • 2) Transfer the ground cell suspension into a 50 mL centrifuge tube, add about 5 mL of normal saline to rinse the petri dish, and also transfer it into the 50 mL centrifuge tube, and combine the suspensions. • 3) Centrifuge the cell suspension at 1000 r/min for 10 min, discard the supernatant, and add an appropriate volume of normal saline to resuspend. Then add 3 times volume of ammonium chloride erythrocyte lysate, pipetting evenly. After lysing on ice for about 10 min, add 10 mL of normal saline to stop the lysing, and centrifuge at 1000 r/min for 5 min. • 4) After centrifugation, discard the supernatant, add 10 mL of physiological saline, pipette evenly, centrifuge at 1000 r/min for 5 min, and repeat the above operation once. Cells were then resuspended in 10% RMPI 1640 medium for subsequent culture or in 0.5% BSA for subsequent T cell sorting. […]
• A. Washing of CD3/CD28 magnetic beads: a. […] The cells were transferred to another tube to remove the beads as completely as possible and cultured in medium supplemented with […] (which could be increased according to the actual situation) and their status, proliferation and viability were monitored. […]

In the next data set the target is HSA (Homo sapiens, UniProt P02768). The data set can be described thus: Binding of compounds with HSA (albumin coupling). Conditions: compound with HSA 3:1, 37° C. for 3 h.
Chain of HSA (P02768 25-609): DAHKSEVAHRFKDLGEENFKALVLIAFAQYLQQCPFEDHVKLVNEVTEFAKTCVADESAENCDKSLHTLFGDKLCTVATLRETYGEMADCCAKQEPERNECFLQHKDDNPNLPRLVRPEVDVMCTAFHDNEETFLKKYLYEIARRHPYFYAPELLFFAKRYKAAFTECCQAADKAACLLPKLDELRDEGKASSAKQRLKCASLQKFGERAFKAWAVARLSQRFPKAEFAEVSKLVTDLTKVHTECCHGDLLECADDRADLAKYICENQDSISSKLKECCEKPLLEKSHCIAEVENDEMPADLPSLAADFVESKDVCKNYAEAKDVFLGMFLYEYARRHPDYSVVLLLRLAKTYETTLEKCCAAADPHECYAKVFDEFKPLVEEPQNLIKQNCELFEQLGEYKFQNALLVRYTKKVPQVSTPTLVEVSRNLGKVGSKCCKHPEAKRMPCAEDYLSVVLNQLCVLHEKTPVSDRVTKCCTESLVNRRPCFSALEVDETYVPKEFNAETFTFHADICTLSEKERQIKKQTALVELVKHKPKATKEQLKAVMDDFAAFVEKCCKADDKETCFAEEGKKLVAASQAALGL
In data set [1] the test system is CT26 tumors orthotopically transplanted in liver. Description: Orthotopic liver CT26 tumors, EMC-AANL-DOX, lenvatinib and PD-1. Conditions: 18 μmol/kg IV once weekly for 3 weeks. Type of data set: in vivo, BALB/c mice. How it is done:
5×10^5 CT26 cells were injected subcutaneously into the back of nude mice. Randomization was performed when the tumor size reached 800-1000 mm^3. Tumor tissue was then extracted and cut into 100 mm^3 tumor tissue pieces and transplanted orthotopically into BALB/c mouse livers. After one week, when the orthotopically transplanted tumors grew, the mice with orthotopically transplanted tumors were randomized. • 2) Treatment course: 6 mice in one group were treated with drugs. The day of treatment was Day 1. According to the clinical application of EMC-AANL-DOX, the drug was administered intravenously (IV) once weekly for 3 weeks.

The subject of the next data set is CT26 tumor. Description: CT26 tumor immune model, tumor suppression and CD8+ T cell analysis. Type of data set: in vivo, BALB/c mice. How it is done: • 1) CT26 cells were purchased from ATCC. […] The corresponding 5×10^6 cells were injected subcutaneously into the back of […] mice. After the size of tumors reached at least 100 mm^3, the mice were randomized into groups. Treatment was then initiated, with the day of treatment initiation being Day 1. • 3) The course of treatment. The drug was administered at an equimolar dose of 36 umol/kg. The control group was given normal saline. The drug was administered once a week for three week. • 4) Tumor CD8+ T cell analysis. Tumor tissue was homogenized, individual cells in the tumor were filtered, dissociated and washed twice with buffer, and then incubated with leukocyte common antigen CD45-PE and CD8-FITC-labeled antibodies for 1 hour at room temperature. The cells were washed twice with phosphate buffered saline containing 1% fetal bovine serum, and then the proportion of T lymphocyte antigen (CD8)-positive cells in leukocyte common antigen (CD45)-positive cells was analyzed by flow cytometry. An increase in the ratio indicates an increase in T lymphocytes and therefore an improvement in the immunity of the animal to the tumor. • 5) The grouping and test results are shown in Table 7.

In data set [2] the test system is Human fibrosarcoma HT-1080 tumor tissue homogenate. Description: Activation in HT-1080 tumor tissue homogenate. Type of data set: biochemical. Conditions: HT-1080 homogenate pH 6.0, 37° C., 1 mg/ml. How it is done:
(§1) In the experiments of the present disclosure, 1 mg/ml of the sample compound was added to 100 μg of acidified tumor tissue homogenate (pH 6.0) at 37° C. The enzyme in the tumor tissue homogenate can cause the release of doxorubicin, and the reduction of compound and the increase of doxorubicin could be detected by HPLC to compare the activation efficiency of the drug in the tumor tissue.

Data set [3] has as its system Human pancreatic carcinoma Panc-1 tumor tissue homogenate. Description: Activation in Panc-1 tumor tissue homogenate. In kind it is biochemical. Conditions: Panc-1 homogenate pH 6.0, 37° C., 1 mg/ml. How it is done: as §1
Setting [4] is: drug 36 umol/kg once a week for three weeks, PD-1 antibody 5 mg/kg.

SMILES strings stand for the structures. Where a SMILES comes first, the peptide text is derived from it. The star is where a group is joined. Doxorubicin(3'-N) = COc1cccc2c1C(=O)c1c(O)c3c(c(O)c1C2=O)C[C@@](O)(C(=O)CO)C[C@@H]3O[C@H]1C[C@H](N*)[C@H](O)[C@H](C)O1; Hexanoyl(6-maleimido) = O=C1C=CC(=O)N1CCCCCC(=O)*

Procedure for HSA: HSA was dissolved in sterile water. The compound was combined with HSA at a ratio of 3:1 (4.8 umol/mL, 1.6 umol/mL), and reacted in a water bath at 37° C. for 3 h. The reaction solution was taken out, and the unbound compound was filtered by pressurized ultrafiltration membrane, diluted with normal saline and filtered for 3 times to obtain the semi-finished product.

Take `COc1cccc2c1C(=O)c1c(O)c3c(c(O)c1C2=O)C[C@@](O)(C(=O)CO)C[C@@H]3O[C@H]1C[C@H](NC(=O)[C@H](CC(C)C)NC(=O)[C@H](CC(N)=O)NC(=O)[C@H](C)NC(=O)[C@H](C)NC(=O)CCOCCOCCNC(=O)CCN2C(=O)C=CC2=O)[C@H](O)[C@H](C)O1` [QHL-087-DOX]: in the data set with CD8+ T cells, the “cytotoxicity against CD8+ T cells (FIG. 5)” value was “less cytotoxicity against CD8+ T cells”.
Turning to `COc1cccc2c1C(=O)c1c(O)c3c(c(O)c1C2=O)C[C@@](O)(C(=O)CO)C[C@@H]3O[C@H]1C[C@H](NC(=O)[C@H](CC(C)C)NC(=O)[C@H](CC(N)=O)NC(=O)[C@H](C)NC(=O)[C@H](C)NC(=O)CCCCCN2C(=O)C=CC2=O)[C@H](O)[C@H](C)O1` [EMC-AANL-DOX] ({Hexanoyl(6-maleimido)}-AANL-{Doxorubicin(3'-N)}), the “binding rates of HSA” value at HSA stood at 62%. Moreover, the “efficacy combined with lenvatinib (FIG. 11)” value in data set [1] is on record as “superior to that of each monotherapy”. The “efficacy combined with PD-1 (FIG. 11)” value in data set [1] (PD-1 5 mg/kg twice weekly) is given as “superior to that of lenvatinib combined with PD-1”. The “CD8:CD45 (%)” value in the data set with CT26 tumor (CD8-positive among CD45-positive cells in tumor, flow cytometry) came out at 8.9%. Further, the “therapeutic effect combined with PD-1, in words” value in the data set with CT26 tumor (combined with PD-1 versus single drug) is “improved compared with single drug”. Moreover, in the data set on CT26 tumor (setting [4]), the “Tumor inhibition rate (%) Day 28” value worked out at 66.9% and the “Tumor volume (mm^3) Day 28” value was 624.5 ± 313.6 mm^3. Moreover, the “Compound activation ratios (%)” value in data set [2] is 44.7%. Moreover, the “Compound activation ratios (%)” value in data set [3] stood at 54.8%.
